According to PMC4877593, “Design and Synthesis of Potent in Vitro and in Vivo Anticancer Agents Based on 1-(3′,4′,5′-Trimethoxyphenyl)-2-Aryl-1H-Imidazole” (Scientific Reports, 2016):
Where two headings read alike, the source gives them in different places.

Experiments:
[1] = test system: tubulin; assay: Inhibition of [3H]colchicine binding to tubulin; set-up: species or system bovine; settings: tubulin 1 μM, [3H]colchicine 5 μM
Procedure: The ability of the test compounds to inhibit colchicine binding to tubulin was measured as described[22], except that the reaction mixtures contained 1 μM tubulin, 5 μM [^3H]colchicine and 1 or 5 μM test compound.

[2] = test system: MCF-7; assay: In vitro antiproliferative activity (MTT), MCF-7; type: cell-based; settings: Homo sapiens, MCF7, tumor cell proliferation, 72 h, mean ± SE
Procedure: (§1) Human T-cell leukemia (CCRF-CEM and Jurkat) and human B-cell leukemia (SEM) cells were grown in RPMI-1640 medium (Gibco, Milano, Italy). Breast adenocarcinoma (MCF7), human cervix carcinoma (HeLa), and human colon adenocarcinoma (HT-29) cells were grown in DMEM medium (Gibco, Milano, Italy), all supplemented with 115 units/mL penicillin G (Gibco, Milano, Italy), 115 μg/mL streptomycin (Invitrogen, Milano, Italy), and 10% fetal bovine serum (Invitrogen, Milano, Italy). Stock solutions (10 mM) of the different compounds were obtained by dissolving them in dimethyl sulfoxide (DMSO). Individual wells of a 96-well tissue culture microtiter plate were inoculated with 100 μL of complete medium containing 8 × 10^3 cells. The plates were incubated at 37 °C in a humidified 5% CO2 incubator for 18 h prior to the experiments. After medium removal, 100 μL of fresh medium containing the test compound at different concentrations was added to each well in triplicate and incubated at 37 °C for 72 h. The percentage of DMSO in the medium never exceeded 0.25%. This was also the maximum DMSO concentration in all cell-based assays described below. […] Different concentrations of the test compounds were added, and viability was determined 72 h later by the MTT test. For cytotoxicity evaluations in resting PBL cultures, non-adherent cells were resuspended (5 × 10^5 cells/mL) and treated for 72 h with the test compounds, as described above.

[3] = test system: RS4;11; assay: In vitro antiproliferative activity (MTT), RS4;11; type: cell-based; settings: Homo sapiens, tumor cell proliferation, 72 h, mean ± SE
[4] = test system: A549; assay: In vitro antiproliferative activity (MTT), A549; type: cell-based; settings: Homo sapiens, tumor cell proliferation, 72 h, mean ± SE
Procedure: as §1

[5] = test system: HL-60; assay: In vitro antiproliferative activity (MTT), HL-60; type: cell-based; settings: Homo sapiens, tumor cell proliferation, 72 h, mean ± SE
[6] = test system: NCI-H460 (human lung large cell carcinoma); settings: cited from earlier work
[7] = test system: panel of seven human tumor cell lines; assay: Antiproliferative activity across the panel of seven human tumor cell lines; type: cell-based
Procedure: as §1

[8] = test system: bovine brain tubulin; assay: Inhibition of tubulin polymerization (turbidimetry); type: biochemical
Procedure: To evaluate the effect of the compounds on tubulin assembly in vitro[22], varying concentrations of compounds were preincubated with 10 μM bovine brain tubulin in glutamate buffer at 30 °C and then cooled to 0 °C. After addition of 0.4 mM GTP (final concentration), the mixtures were transferred to 0 °C cuvettes in a recording spectrophotometer equipped with an electronic temperature controller and warmed to 30 °C. Tubulin assembly was followed turbidimetrically at 350 nm. […] The ability of the test compounds to inhibit colchicine binding to tubulin was measured as described, except that the reaction mixtures contained 1 μM tubulin, 5 μM [^3H]colchicine and 1 or 5 μM test compound.

[9] = test system: Jurkat; assay: In vitro antiproliferative activity (MTT), Jurkat; type: cell-based; settings: Homo sapiens, tumor cell proliferation, 72 h, mean ± SE
Procedure: as §1

[10] = test system: HT-29; assay: In vitro antiproliferative activity (MTT), HT-29; type: cell-based; settings: Homo sapiens, tumor cell proliferation, 72 h, mean ± SE
Procedure: as §1

[11] = test system: HeLa; assay: In vitro antiproliferative activity (MTT), HeLa; type: cell-based; settings: Homo sapiens, tumor cell proliferation, 72 h, mean ± SE
Procedure: as §1

[12] = test system: HCT-15 (human colon adenocarcinoma); settings: cited from earlier work

COc1cc(-n2ccnc2-c2ccc3ccccc3c2)cc(OC)c1OC [Compound 3c, reference compound]
Colchicine binding % inhibition ± S.D., 5 μM drug [1]: 65 ± 4% | IC50 [2]: 4.6 ± 2.3 nM | IC50 [3]: 62.3 ± 10.3 nM | IC50 [4]: 7.1 ± 1.5 nM | IC50 [5]: 24 ± 12.1 nM | IC50 [6]: 57 nM | IC50 ([7]; average over the seven cell lines, read-out: average IC50 values): 15 nM | IC50 ([7]; range over seven cancer cell lines, read-out: IC50 values in the seven cell lines (range)): 2 to 62.3 nM | IC50 ([8]; repeated beside the calculated energies, read-out: inhibition of tubulin polymerization IC50 (Table 4)): 1800 nM | IC50 ([8]; tubulin at 10 μM, 20 min incubation, read-out: Tubulin assembly IC50 ± S.D.): 1800 nM | IC50 [9]: 2.5 ± 0.9 nM | IC50 [10]: 3.6 ± 0.9 nM | IC50 [11]: 2 ± 0.14 nM | IC50 [12]: 51 nM
